Values of other authors in US8362030B2, “Tricyclic derivatives as inhibitors of poly(ADP-ribose) polymerase (PARP)” (Istituto di Ricerche di Biologia Molecolare P. Angeletti …, priority 2008, dated 2013).

Test system: ischemia and reperfusion of the heart
Settings: rabbits

## Oc1cccc2c(O)nccc12 [1,5-dihydroxyisoquinoline]
Single injection 1 mg/kg
  reduction in infarct size: 38-48%

## NC(=O)c1cccc(N)c1 [3-amino-benzamide]
Single injection 10 mg/kg, one minute before occlusion or before reperfusion
  reduction in infarct size in the heart: 32-42%
